In patent US10772887B2, “Anti-HTLV-1 drug and therapeutic agent for HTLV-1-associated myelopathy/tropical spastic paraparesis (HAM/TSP)” (Kagoshima University, priority 2016, dated 2020):
“And” between values parts separate entries of the source, which are not always exact repeats. Equal values may be shown once.

Key:
[1] = system: HAM-derived CD4+ T cells
[2] = system: NC-derived CD4+ T cells; details: 5 μM, 24-hour treatment, FIG. 2 A/B
[3] = system: HAM-derived non-CD4-PBMCs; details: 5 μM, 24-hour treatment, FIG. 2 C/D
[4] = system: NC-derived non-CD4-PBMCs; details: 5 μM, 24-hour treatment, FIG. 2 C/D
[5] = system: HTLV-1 pX (proviral load) in live cells of PBMCs from AC-derived cases; assay: PMA-HTLV-1 viability PCR, PBMCs from AC-derived cases; type: cell-based
Procedure: PBMCs (1×10^7 cells) from 14 AC-derived cases frozen and preserved in liquid nitrogen were used.
Specimens frozen and preserved in liquid nitrogen were thawed in a water bath at 37° C. and washed twice with approximately 10 mL of PBS at 300×g during centrifugation for 10 minutes, and resuspended in 1 mL of PBS. The cell concentration was counted by the trypan blue exclusion method. Thereafter, each specimen was divided into two groups such that each group includes approximately 100,000 PBMCs. One of the groups was not subjected to PMA treatment, and the other group was subjected to PMA treatment. The sample groups were named “Sample No-Drug-P−” and “Sample No-Drug-P+,” respectively.
A PMA stock solution was added to the sample named “Sample No-Drug-P+” to yield a final concentration of 50 μM in the manner described in Example 2, occasionally shaken under light protection at room temperature for 5 minutes for PMA treatment, and treated with a photo-crosslinker under a halogen lamp for crosslinking during air-cooling for 5 minutes. Genomic DNA was extracted from both samples including the former sample which was not subjected to PMA treatment using DNeazy Blood & Tissue Kits (Cat No 69504, QIAGEN).
RPMI1640 (supplemented with 10% fetal bovine serum, 1% penicillin, and streptomycin) in a volume of 7 mL+α was added to the cell suspension remaining after preparing the two samples in (4-1-2), followed by vortexing. […] After mixing with a shaker for a short period of time, the cells were cultured in a 5% CO2 incubator.
After T=6 h, each specimen was subjected to PMA treatment and crosslinking, and then, genomic DNA was extracted therefrom according to the method described in Example 2.
PMA treatment and DNA extraction were carried out according to the method described in Example 2. Accordingly, 10 samples of genomic DNA from each AC sample to be tested, that is to say, 140 samples from 14 specimens, were prepared.
In this Example, the methods described in Example 2 were used for DNA concentration measurement, working solution preparation, real-time PCR, and the method for calculating PMA-HTLV-1 viability PCR indexes.
All samples were examined at N=14.

[6] = read-out: Cmax concentration; based on package inserts / in vivo dynamics data; concentration examined in terms of Cmax; cited from earlier work
[7] = system: HTLV-1 pX (proviral load) in live cells of PBMCs from HAM cases; assay: PMA-HTLV-1 viability PCR, PBMCs from HAM cases; type: cell-based; design: key to ΔCτ Drug Mean: ΔCτ = CτD−P+ − CτD+P+ (Cτ shift by drug, PMA-treated); details: N=16
Procedure: PBMCs from 16 HAM cases frozen and preserved in liquid nitrogen were used.
A PMA stock solution (20 mM, frozen and preserved at −20° C. under light protection) was added to cell samples to yield a final concentration of 50 μM, and the tubes were incubated in a dark place (wrapped in aluminum foil) at room temperature for 5 minutes (each tube was sometimes flicked by fingers for mixing).
A photo-crosslinker and a halogen lamp were always used to perform photo-crosslinking using a household 100-V AC power source. The cell specimen volume was adjusted by appropriately adding PBS to 200 μL and irradiation was carried out for 5 minutes at a position 20 cm away from the halogen lamp in the dark. […] Each sample tube was sometimes flicked by fingers for mixing
Frozen PBMC specimens were thawed in a water bath at 37° C. and washed twice with PBS at 300×g, and then, the pellet was suspended in 1 mL of PBS and placed on ice. The cell concentration was counted by the trypan blue exclusion method using a hemocytometer.
Approximately 5×10^5 to 1×10^6 cells were collected in two Eppendorf tubes and the solution volume was adjusted to 200 μL by adding PBS if appropriate. One of the tubes was subjected to PMA treatment and photo-crosslinking, and the other tube was not treated in the same manner. DNA was extracted from both tubes using DNeasy Blood & Tissue Kits (QIAGEN).
To the remaining liquid of the cell suspension of each cell specimen, approximately 7.5 mL of cell medium RPMI1640 (supplemented with 10% of fetal calf serum and 1% of penicillin-streptomycn) was added to adjust the total volume to 8.0 mL+α. Each mixture was plated in a volume of approximately 2000 μL on a 6-well polystyrene plate such that 4 wells were used per cell specimen.
After adding the drug, each mixture was gently shaken on a shaker and incubation was started at 37° C. in a 5% CO2 incubator.
At T=6 h, about a half volume of the cell suspension of each well was harvested, collected in an Eppendorf tube, and centrifuged at 3,500 rpm×10 min. The supernatant was discarded, and the pellet was resuspended with 1 mL of PBS. Centrifugation was performed again at 3,500 rpm×10 min, and the supernatant was discarded, followed by washing. PBS was added to yield a volume of 200 μL, and all specimens were subjected to PMA treatment and photo-crosslinking. Subsequently, the specimens were washed with PBS again, and DNA was extracted with DNeasy Blood & Tissue Kits (QIAGEN).
The procedures were performed as in the case of T=6 h described in (1-2-5) above. DNA samples were named, for example, “Sample No-Imatinib600 nM-12 h.”
The DNA concentration was measured by ND-1000 (Thermo Fisher Scientific), and DNA was prepared in an amount (10 ng/μL×triplicate or more) sufficient for real-time PCR to be performed in triplicate. DNA was frozen and preserved at −20° C. until use.
According to the protocol (for the PCR system of 25 μL in total) of TaqMan Universal Master Mix II (#4440044, Thermo Fisher Scientific), 20 μM forward and reverse primers, 8 μM TaqMan probes, 2× Universal Master Mix II, and D2 W were mixed. The mixture was pipetted in a volume of 25 μL into each of triplicate wells of a MicroAmp Fast 96-well Reaction Plate (0.1 mL) (REF 4346907, Applied Biosystems) provided with MicroAmp Optical Adhesive Film (P/N 4311971, Applied Biosystems).
A standard dilution series for standard curve creation was prepared from the following five points for pX: NTC (No Template Control); 2 copies/μL (10 copies at 5 μL); 20 copies/μL (100 copies at 5 μL); 200 copies/μL (1000 copies at 5 μL); and […] (10000 copies at 5 μL).
The thermal cycle program was carried out using the StepOne Plus real-time PCR system (Applied Biosystems) and StepOne software ver. 2.3 with 1 cycle in a holding stage at 50° C.×2 minutes and 95° C.×10 minutes and 45 cycles of amplification at 95° C.×15 seconds and 60° C.×1 minute.
Index of the Cτ extension effect by ABL1 inhibitor treatment: ΔCτDrug=CτD−P+−CτD+P+ [Formula 3]

[8] = system: HTLV-1 proviral load (PVL); assay: Peripheral blood PVL before and after oral imatinib in an anti-HTLV-1 antibody-positive CML patient with HAM; type: in vivo, human; details: 2844 copies before drug administration, one patient

Cc1cn(-c2cc(NC(=O)c3ccc(C)c(Nc4nccc(-c5cccnc5)n4)c3)cc(C(F)(F)F)c2)cn1 [nilotinib]
cell death of HAM-derived CD4+ T cells [1]: cause cell death to occur | cell death of NC-derived CD4+ T cells [2]: cell death does not occur | cell death of non-CD4-PBMCs, HAM [3]: significantly observed | cell death of non-CD4-PBMCs, NC [4]: significantly observed | pX decrease rate in live cells (%) Mean ([5]; Nilotinib 30 nM, 6 h, N=14): 53.23% | ΔCτ Drug Mean ([5]; Nilotinib 30 nM, 6 h, N=14): −1.26 | pX decrease rate in live cells (%) Mean ([5]; Nilotinib 30 nM, 12 h, N=14): ~71% and 71.38% | ΔCτ Drug Mean ([5]; Nilotinib 30 nM, 12 h, N=14): −1.56 | pX decrease rate in live cells (%) Mean ([5]; Nilotinib 30 nM, 12 h, N=14, listed as Nilotinib): 71.38% | pX decrease rate in live cells (%) Mean ([5]; Nilotinib 3 μM, 6 h, N=14): 50.50% | ΔCτ Drug Mean ([5]; Nilotinib 3 μM, 6 h, N=14): −1.05 | pX decrease rate in live cells (%) Mean ([5]; Nilotinib 3 μM, 12 h, N=14): 58.56% | ΔCτ Drug Mean ([5]; Nilotinib 3 μM, 12 h, N=14): −1.36 | Cmax [6]: 3000 nM | pX decrease rate in live cells (%) Mean ([7]; Nilotinib 30 nM, 6 h): 69.51% | ΔCτ Drug Mean ([7]; Nilotinib 30 nM, 6 h): −2.03 | pX decrease rate in live cells (%) Mean ([7]; Nilotinib 30 nM, 12 h): 78.00% | ΔCτ Drug Mean ([7]; Nilotinib 30 nM, 12 h): −2.63 | pX decrease rate in live cells (%) Mean ([7]; Nilotinib 3 μM, 6 h): 53.82% | ΔCτ Drug Mean ([7]; Nilotinib 3 μM, 6 h): −0.86 | pX decrease rate in live cells (%) Mean ([7]; Nilotinib 3 μM, 12 h): 36.19% | ΔCτ Drug Mean ([7]; Nilotinib 3 μM, 12 h): −1.46

Cc1ccc(NC(=O)c2ccc(CN3CCN(C)CC3)cc2)cc1Nc1nccc(-c2cccnc2)n1 [imatinib]
pX decrease rate in live cells (%) Mean ([5]; Imatinib 600 nM, 6 h, N=14): 23.83% | ΔCτ Drug Mean ([5]; Imatinib 600 nM, 6 h, N=14): −0.28 | pX decrease rate in live cells (%) Mean ([5]; Imatinib 600 nM, 12 h, N=14): approximately 45% | ΔCτ Drug Mean ([5]; Imatinib 600 nM, 12 h, N=14): −0.98 | pX decrease rate in live cells (%) Mean ([5]; Imatinib 600 nM, 12 h, N=14, listed as Imatinib): 45.46% | pX decrease rate in live cells (%) Mean ([5]; Imatinib 5 μM, 6 h, N=14): 51.65% | ΔCτ Drug Mean ([5]; Imatinib 5 μM, 6 h, N=14): −1.45 | pX decrease rate in live cells (%) Mean ([5]; Imatinib 5 μM, 12 h, N=14): 58.25% | peripheral blood PVL ([8]; 1 year and 5 months after drug administration): 448 copies/10^4 PBMCs | peripheral blood PVL ([8]; after 5 months of drug administration, oral 400 then 300 mg/day): 1138 copies | pX decrease rate in live cells (%) Mean ([7]; Imatinib 600 nM, 6 h): 50.35% | ΔCτ Drug Mean ([7]; Imatinib 600 nM, 6 h): −1.30 | pX decrease rate in live cells (%) Mean ([7]; Imatinib 600 nM, 12 h): 66.37% | ΔCτ Drug Mean ([7]; Imatinib 600 nM, 12 h): −1.96 | pX decrease rate in live cells (%) Mean ([7]; Imatinib 5 μM, 6 h): 43.37% | ΔCτ Drug Mean ([7]; Imatinib 5 μM, 6 h): −0.99 | pX decrease rate in live cells (%) Mean ([7]; Imatinib 5 μM, 12 h): 44.99% | ΔCτ Drug Mean ([7]; Imatinib 5 μM, 12 h): −1.49
